Converted amounts (≈) assume the structure as drawn. Where a name gives a salt, the structure may show the parent alone. Read-outs that look alike come from different tables or passages of the source.
Assays:
A. baumannii = assay: Gram negative MIC protocol (OD600, LB, 24 h); settings: Acinetobacter baumannii
Protocol: (§1) Overnight bacterial cultures were grown in LB with no added antibiotics at 37° C. with shaking. A 1:1000 dilution of these cultures into LB was exposed to concentration gradients of compounds in 96-well plates (100 μL per well assay volume). Resulting plates were incubated at 37° C. for 24 h without shaking, and OD600 was measured at the end of the incubation. MICs were determined as the lowest concentrations at which OD600 remained at baseline.

H37RvMA = assay: Tuberculosis Alamar Blue/Resazurin assay (MIC); type: cell-based; settings: Mycobacterium tuberculosis, H37RV, read-out: WT H37Rv MTB Activity
E. coli = assay: Gram negative MIC protocol (OD600, LB, 24 h); settings: Escherichia coli
Protocol: as §1

[1] = read-out: MIC A. baumannii LB Media, A. baumannii, LB media, 24 h, OD600
[2] = read-out: MIC E. coli delta-TolC LB Media, E. coli delta-TolC, LB media, OD600
[3] = read-out: MIC WT E. coli LB Media, WT E. coli, LB media, OD600
[4] = read-out: MIC A. baumannii LB Media

| SMILES | MIC (A. baumannii; [1]) | MIC (H37RvMA; WT H37Rv MTB) | MIC (E. coli; [2]) | MIC (E. coli; [3]) | MIC (H37RvMA) | MIC (A. baumannii; [4]) |
| --- | --- | --- | --- | --- | --- | --- |
| c1ccc(CNC2CC23CCCCC3)cc1 (stereo not shown) [B125] | > 150 µM | > 150 µM | > 150 µM | > 150 µM | – | – |
| c1ccc(CNCCN2CCCC3CCCC32)cc1 (stereo not shown) [B126] | > 150 µM | > 150 µM | > 150 µM | > 150 µM | – | – |
| c1ccc(CNCC2CCCc3ccccc32)cc1 (stereo not shown) [B127] | > 150 µM | 150 µM (≈ 37.7 µg/mL) | > 150 µM | > 150 µM | – | – |
| c1ccc(CNCCC2CCCC2)cc1 [B128] | > 150 µM | > 150 µM | > 150 µM | > 150 µM | – | – |
| c1ccc(CNCCN2CCc3ccccc3C2)cc1 [B129] | > 150 µM | > 150 µM | > 150 µM | > 150 µM | – | – |
| CC(CNCc1ccccc1)N1CCc2ccccc2C1 (stereo not shown) [B130] | > 150 µM | > 150 µM | > 150 µM | > 150 µM | – | – |
| CCC(CNCc1ccccc1)N1CCc2ccccc2C1 (stereo not shown) [B131] | > 150 µM | > 150 µM | > 150 µM | > 150 µM | – | – |
| c1ccc(CNCCC2CCCCC2)cc1 [B132] | 150 µM (≈ 32.6 µg/mL) | > 150 µM | 85 µM (≈ 18.5 µg/mL) | 124 µM (≈ 27 µg/mL) | – | – |
| c1ccc(CNCCc2ccc3ccccc3c2)cc1 [B133] | > 150 µM | 55 µM (≈ 14.4 µg/mL) | > 150 µM | > 150 µM | – | – |
| CC(NCc1ccccc1)C1CCCCC1 (stereo not shown) [B134] | > 150 µM | > 150 µM | > 150 µM | 120 µM (≈ 26.1 µg/mL) | – | – |
| c1ccc(CNCC2CCC2)cc1 [B135] | > 150 µM | > 150 µM | > 150 µM | > 150 µM | – | – |
| CC(C)CNCc1ccccc1 [B136] | > 150 µM | > 150 µM | > 150 µM | > 150 µM | – | – |
| Cc1ccc(CNC2CCCCC2)cc1 [B137] | > 150 µM | > 150 µM | > 150 µM | > 150 µM | – | – |
| OC(CNCc1ccccc1)c1ccc2ccccc2c1 (stereo not shown) [B138] | > 150 µM | > 150 µM | > 150 µM | > 150 µM | – | – |
| CN1CCC(CNCc2ccccc2)c2ccccc21 (stereo not shown) [B139] | > 150 µM | > 150 µM | > 150 µM | > 150 µM | – | – |
| c1ccc(CNCCN2CCc3sccc3C2)cc1 [B140] | > 150 µM | > 150 µM | > 150 µM | > 150 µM | – | – |
| c1ccc(CNCC2CCCC2)cc1 [B141] | > 150 µM | > 150 µM | > 150 µM | > 150 µM | – | – |
| CC1CCC(NCc2ccccc2)CC1 (stereo not shown) [B142] | > 150 µM | > 150 µM | > 150 µM | > 150 µM | – | – |
| COc1cccc(CNCCC2=CCCCC2)c1 [B143] | > 150 µM | > 150 µM | > 150 µM | > 150 µM | – | – |
| Fc1ccc(CNCCC2=CCCCC2)cc1F [B144] | > 150 µM | > 150 µM | > 150 µM | > 150 µM | – | – |
| CC1CCc2ccccc2N1CCNCc1ccccc1 (stereo not shown) [B145] | > 150 µM | 91 µM (≈ 25.5 µg/mL) | > 150 µM | > 150 µM | – | – |

| SMILES | MIC (A. baumannii; [1]) | MIC (H37RvMA; WT H37Rv MTB) | MIC (E. coli; [2]) | MIC (E. coli; [3]) | MIC (H37RvMA) | MIC (A. baumannii; [4]) |
| --- | --- | --- | --- | --- | --- | --- |
| c1ccc(CNCCC2CC3CCC2C3)cc1 (stereo not shown) [B146] | 150 µM (≈ 34.4 µg/mL) | > 150 µM | 90 µM (≈ 20.6 µg/mL) | 150 µM (≈ 34.4 µg/mL) | – | – |
| COc1cc2c(cc1OC)CN(CCNCc1ccccc1)CC2 [B147] | > 150 µM | > 150 µM | > 150 µM | > 150 µM | – | – |
| c1ccc(CNCCN2CCCc3ccccc32)cc1 [B148] | > 150 µM | 150 µM (≈ 40 µg/mL) | > 150 µM | > 150 µM | – | – |
| CC(NCc1ccccc1)C1(C)CC1 (stereo not shown) [B149] | > 150 µM | > 150 µM | > 150 µM | > 150 µM | – | – |
| CCCCCCCCNCc1ccccc1 [B150] | > 150 µM | > 150 µM | > 150 µM | > 150 µM | – | – |
| C1=C(CCNCCc2ccccc2)CCCC1 [B151] | > 150 µM | – | > 150 µM | > 150 µM | > 150 µM | – |
| C1=C(CCNCc2cccs2)CCCC1 [B152] | > 150 µM | > 150 µM | > 150 µM | > 150 µM | – | – |
| c1ccc(CNCCc2ccc3c(c2)OCO3)cc1 [B154] | – | – | > 150 µM | > 150 µM | > 150 µM | > 150 µM |
| c1ccc(CNCCc2ccc3ccccc3n2)cc1 [B155] | > 150 µM | > 150 µM | > 150 µM | > 150 µM | – | – |
| C1=CCC(CCNCc2ccccc2)CC1 (stereo not shown) [B156, N-benzyl-2-(cyclohex-3-enyl)ethanamine hydrochloride] | – | – | 150 µM | 150 µM | > 150 µM | 150 µM |
| CC(CC1CC=CCC1)NCc1ccccc1 (stereo not shown) [B157, N-benzyl-1-(cyclohex-3-enyl)propan-2-amine] | – | – | 11 µM (≈ 2.52 µg/mL) | 20 µM (≈ 4.59 µg/mL) | 91 µM (≈ 20.9 µg/mL) | 55 µM (≈ 12.6 µg/mL) |
| OB1OCc2ccc(CNCc3ccccc3)cc21 [B158, 6-((benzylamino)methyl)benzo[c][1,2]oxaborol-1(3H)-ol] | > 150 µM | > 150 µM | > 150 µM | > 150 µM | – | – |
| C1=CC(CCNCc2ccccc2)CCC1 (stereo not shown) [B160] | – | – | > 150 µM | > 150 µM | > 150 µM | > 150 µM |
| C1=C(CC2CCCN2Cc2ccccc2)CCCC1 (stereo not shown) [B161] | > 150 µM | > 150 µM | > 300 µM | > 300 µM | – | – |
| CC1=C(C)CC(CC(C)NCc2ccccc2)CC1 (stereo not shown) [B162, N-benzyl-1-(3,4-dimethylcyclohex-3-en-1-yl)propan-2-amine] | > 150 µM | > 150 µM | 300 µM (≈ 77.2 µg/mL) | > 500 µM | – | – |
| C1=C(CC2CCCCN2Cc2ccccc2)CCCC1 (stereo not shown) [B163] | > 150 µM | > 150 µM | 300 µM (≈ 80.8 µg/mL) | > 300 µM | – | – |
| CCC(CC1CCCCC1)NCc1ccccc1 (stereo not shown) [B164, N-benzyl-1-cyclohexylbutan-2-amine] | > 150 µM | > 150 µM | 60 µM (≈ 14.7 µg/mL) | > 300 µM | – | – |
| CCCC(CC1CCCCC1)NCc1ccccc1 (stereo not shown) [B165, N-benzyl-1-cyclohexylpentan-2-amine] | > 150 µM | > 150 µM | 60 µM (≈ 15.6 µg/mL) | > 300 µM | – | – |
| CCC(CC1CCCCC1)NCc1ccccc1F (stereo not shown) [B166, 1-cyclohexyl-N-(2-fluorobenzyl)butan-2-amine hydrochloride] | 300 µM | > 150 µM | 250 µM | > 300 µM | – | – |
| c1ccc(CNC(CC2CCCCC2)C2CC2)cc1 (stereo not shown) [B167, N-benzyl-2-cyclohexyl-1-cyclopropylethanamine] | > 300 µM | > 150 µM | > 300 µM | > 300 µM | – | – |
| OCC(CC1CCCCC1)NCc1ccccc1 (stereo not shown) [B168, 2-(benzylamino)-3-cyclohexylpropan-1-ol] | – | – | 182 µM (≈ 45 µg/mL) | 170 µM (≈ 42.1 µg/mL) | > 150 µM | 410 µM (≈ 101 µg/mL) |

| SMILES | MIC (A. baumannii; [1]) | MIC (H37RvMA; WT H37Rv MTB) | MIC (E. coli; [2]) | MIC (E. coli; [3]) | MIC (H37RvMA) | MIC (A. baumannii; [4]) |
| --- | --- | --- | --- | --- | --- | --- |
| c1ccc(CNC(CC2CCCCC2)c2ccccc2)cc1 (stereo not shown) [B169, N-benzyl-2-cyclohexyl-1-phenylethanamine hydrochloride] | > 300 µM | > 150 µM | 74 µM | > 300 µM | – | – |
| C[C@H](CC1=CCCCC1)NCc1ccccc1 [B170] | – | – | > 300 µM | > 300 µM | > 150 µM | > 300 µM |
| C[C@@H](CC1=CCCCC1)NCc1ccccc1 [B171] | – | – | 19 µM (≈ 4.36 µg/mL) | 41 µM (≈ 9.4 µg/mL) | > 150 µM | 110 µM (≈ 25.2 µg/mL) |
| OC(CNCc1ccccc1)C1CCCCC1 (stereo not shown) [B172] | – | – | 96 µM (≈ 22.4 µg/mL) | 170 µM (≈ 39.7 µg/mL) | > 150 µM | > 300 µM |
| OC[C@@H](Cc1ccccc1)NCc1ccccc1 [B173] | > 300 µM | > 150 µM | > 300 µM | > 300 µM | – | – |
| OC[C@H](Cc1ccccc1)NCc1ccccc1 [B174] | > 300 µM | > 150 µM | > 300 µM | > 300 µM | – | – |
| c1ccc(CNC2CCC2c2ccccc2)cc1 (stereo not shown) [B176] | > 300 µM | > 150 µM | > 300 µM | > 300 µM | – | – |
| FC(F)(F)C(CC1CCCCC1)NCc1ccccc1 (stereo not shown) [B177] | > 300 µM | > 150 µM | > 300 µM | > 300 µM | – | – |
| CC1CCCCC1CCNCc1ccccc1 (stereo not shown) [B178] | > 300 µM | 55 µM (≈ 12.7 µg/mL) | > 300 µM | > 300 µM | – | – |
| CC1CCCC(CCNCc2ccccc2)C1 (stereo not shown) [B179] | > 300 µM | 150 µM (≈ 34.7 µg/mL) | 230 µM (≈ 53.2 µg/mL) | > 300 µM | – | – |
| O=C(O)C(CC1CCCCC1)NCc1ccccc1 (stereo not shown) [B180] | > 300 µM | > 150 µM | > 300 µM | > 300 µM | – | – |
| c1ccc(CCNCc2ccccc2)cc1 [B181] | – | – | > 300 µM | > 300 µM | > 150 µM | > 300 µM |
| c1ccc(CNCCC23CCCCC2C3)cc1 (stereo not shown) [B182] | > 300 µM | 91 µM (≈ 20.9 µg/mL) | > 300 µM | > 300 µM | – | – |
| FC1(F)C2CCCCC21CCNCc1ccccc1 (stereo not shown) [B183] | > 300 µM | > 150 µM | > 300 µM | > 300 µM | – | – |
| O=C(O)C1CCCCC1CCNCc1ccccc1 (stereo not shown) [B184] | > 300 µM | > 150 µM | > 300 µM | > 300 µM | – | – |
| COC(=O)C1CCCCC1CCNCc1ccccc1 (stereo not shown) [B185] | > 300 µM | > 150 µM | > 300 µM | > 300 µM | – | – |
| OC1(CCNCc2ccccc2)CCCCC1 [B187] | > 300 µM | > 150 µM | > 300 µM | > 300 µM | – | – |
| OC1(CCNCc2ccccc2)CCCCC1Cl (stereo not shown) [B188] | > 300 µM | > 150 µM | > 300 µM | > 300 µM | – | – |
| OC1CCCCC1CCNCc1ccccc1 (stereo not shown) [B189] | > 300 µM | > 150 µM | > 300 µM | > 300 µM | – | – |

Reference: US11261201B2 (priority 2018, dated 2022)
